Tested on: Trypsin
Assay: anti-trypsin effect (normalised trypsin activity)
Type: biochemical
Settings: control (trypsin only) = 1.0

| Compound | Normalised activity (Climbazole 0.00391% alone) | Normalised activity (Climbazole 0.00781% alone) | Normalised activity (Climbazole 0.01563% alone) | Normalised activity (Climbazole 0.03125% alone) | Normalised activity (Climbazole 0.0625% alone) | Normalised activity (Climbazole 0.125% alone) | Normalised activity (Zinc gluconate 0.00156% alone) | Normalised activity (Zinc gluconate 0.003125% alone) | Normalised activity (Zinc gluconate 0.00625% alone) |
| --- | --- | --- | --- | --- | --- | --- | --- | --- | --- |
| CC(C)(C)C(=O)C(Oc1ccc(Cl)cc1)n1ccnc1 (stereo not drawn) [Climbazole] | 1.15 | 1.31 | 1.41 | 1.30 | 0.908 | 1.06 |  |  |  |
| Zinc gluconate |  |  |  |  |  |  | 1.03 | 0.957 | 0.8404 |

From US8759385B2, “Composition comprising azole fungicide and water soluble metal salt” (Conopco Inc., priority 2009, dated 2014)
